# Results as given in patent US10752588B2 (The Broad Institute, Inc., priority 2014, dated 2020).
# Like-named read-outs stand apart in the source and are kept apart here.
# Legend:
# human D2R/β-arrestin [1] = target: T1, human D2R/β-arrestin (Homo sapiens (Human), UniProt P14416); assay: β-Arrestin agonist assay (PathHunter); format: cell-based; conditions: CHO-K1 cell line expressing human D2R/β-arrestin
# Procedure, shortened: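 After compound incubation, detection reagent (Buffer:Emerald II:Galactor-Star, 19:5:1) added and luminescence or fluorescence read.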
# human D2R/β-arrestin [2] = target: T1, human D2R/β-arrestin; assay: Gi/cAMP agonist assay (Lance Ultra cAMP, Forskolin); format: cell-based; conditions: CHO-K1 cell line expressing human D2R/β-arrestin
# Procedure, shortened: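 Cells were plated and incubated before compounds were pin-transferred and incubated for 10 min at 37 °C. Forskolin was then added to stimulate cAMP. cAMP was detected by Lance Ultra TR-FRET using Eu-cAMP tracer and ULight-anti-cAMP antibody.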
# Solubility in PBS = format: physicochemical
# plasma protein [3] = assay: Plasma protein binding, human; format: in vitro ADME; conditions: for fraction unbound: plasma, read-out: Plasma Protein Binding % bound
# plasma protein [4] = assay: Plasma protein binding, mouse; format: in vitro ADME; conditions: for fraction unbound: plasma, read-out: Plasma Protein Binding % bound
# plasma protein [5] = assay: Plasma protein binding, rat; format: in vitro ADME; conditions: for fraction unbound: plasma, read-out: Plasma Protein Binding % bound
# Plasma stability, human = format: in vitro ADME
# Plasma stability, rat = format: in vitro ADME
# [6] = Microsomal stability, human; format: in vitro ADME
# [7] = Microsomal stability, rat; format: in vitro ADME
# human D2R/β-arrestin [8] = target: T1, human D2R/β-arrestin; conditions: read-out: β-arrestin Antagonist
# Procedure: (§1) The detection reagents are then added, and the read-out is detected.
# (§2) Cells were prepared for assays by growing cultures for up to 2 weeks (from about 6-20 passages). A vial of frozen cells was thawed in a water bath held at 37° C. The cells were then transferred into a 50 ml tube with 10 ml growth media. The vial was rinsed with growth media and the contents transferred to the 50 ml tube. The 50 ml tube was centrifuged at 1200 rpm for 5 minutes at room temperature. […] When the cells reached about 90% confluence (approximately 3 days between passages), the cells were passaged and used for either the agonist or antagonist assays as described below.
# (§3) The cells were prepared for β-arrestin assays as described above. The assays were performed using a PathHunter® β-Arrestin Detecting Kit (DiscoveRX). The cells were grown on 225 mm dishes, then washed once with 1×PBS (Cellgro), followed by digestion with 2.5 ml 1× Detachment reagent (DRX 92-0009) for approximately 2 minutes.
# human D2R/β-arrestin [9] = target: T1, human D2R/β-arrestin; conditions: read-out: cAMP Antagonist
# [10] = Microsomal stability, mouse
# human D2R/β-arrestin [11] = target: T1, human D2R/β-arrestin; assay: cell-based; conditions: β-arrestin Antagonist, CHO-K1 cell line expressing human D2R/β-arrestin; quinpirole used as agonist
# Procedure: as §1, §2, §3
# human D2R/β-arrestin [12] = target: T1, human D2R/β-arrestin; assay: cell-based; conditions: cAMP Antagonist, CHO-K1 cell line expressing human D2R/β-arrestin; quinpirole used as agonist
# D2 = D2 (Homo sapiens (Human), UniProt P14416); assay: D2 radioligand binding assay
# D2, sequence (P14416 whole entry): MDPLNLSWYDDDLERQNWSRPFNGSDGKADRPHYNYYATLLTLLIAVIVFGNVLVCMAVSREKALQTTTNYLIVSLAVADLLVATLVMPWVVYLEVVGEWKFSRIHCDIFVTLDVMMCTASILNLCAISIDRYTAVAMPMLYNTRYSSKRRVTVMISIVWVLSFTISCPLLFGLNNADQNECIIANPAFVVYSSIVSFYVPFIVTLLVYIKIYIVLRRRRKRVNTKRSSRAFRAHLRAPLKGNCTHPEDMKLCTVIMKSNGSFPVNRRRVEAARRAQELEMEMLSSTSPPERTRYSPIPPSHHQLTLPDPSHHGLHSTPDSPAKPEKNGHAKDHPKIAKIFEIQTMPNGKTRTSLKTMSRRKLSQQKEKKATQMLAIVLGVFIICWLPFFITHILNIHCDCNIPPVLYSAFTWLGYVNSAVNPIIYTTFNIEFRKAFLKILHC
# T1 sequence (P14416 whole entry): as above
SMILES,EC50 (human D2R/β-arrestin [1]) [µM],EC50 (human D2R/β-arrestin [2]) [µM],"Plasma Stability: % remaining after 5 hours (Plasma stability, human) [%]","Plasma Stability: % remaining after 5 hours (Plasma stability, rat) [%]",Microsomal Stability: % remaining after 60 minutes [6] [%],Microsomal Stability: % remaining after 60 minutes [7] [%],"Plasma Stability: % remaining after 5 hours (Plasma stability, mouse) [%]",Microsomal Stability: % remaining after 60 minutes [10] [%],solubility (Solubility in PBS; aqueous buffer) [µM],fraction unbound (plasma protein [3]),fraction unbound (plasma protein [4]),fraction unbound (plasma protein [5]),IC50 (human D2R/β-arrestin [11]) [µM],IC50 (human D2R/β-arrestin [12]) [µM],also measured
O=C(NC(c1ccccn1)c1ccccc1F)C1CCN(CCOc2ccccc2)CC1 (stereo not drawn) [Compound 28],> 30,0.1 to 1,100,99,87,78,95,52,,,,,,,solubility (Solubility in PBS): 434 µM; Plasma Protein Binding % bound (plasma protein [3]): 75.3%; Plasma Protein Binding % bound (plasma protein [4]): 72.2%; Plasma Protein Binding % bound (plasma protein [5]): 76.7%; IC50 (human D2R/β-arrestin [8]): 1 to 10 µM; IC50 (human D2R/β-arrestin [9]): > 30 µM
O=C(NC(c1ccc(Cl)cc1)c1cccc(F)c1)C1CCN(CCOc2ccccc2)CC1 (stereo not drawn) [Compound 41],> 30,> 30,100,96,45,78,100,64,< 0.1,0.007,0.006,0.014,1 to 10,0.1 to 1,
O=C(NC(c1ccc(Cl)cc1)c1ccccn1)C1CCN(CCOc2ccccc2F)CC1 (stereo not drawn) [Compound 3],> 30,< 0.1,92,86,64,44,100,22,43,0.246,0.015,0.315,0.1 to 1,> 30,
O=C(NC(c1ccccc1)c1ccc(Cl)cc1)C1CCN(CCOc2ccccc2)CC1 (stereo not drawn) [Compound 39],> 30,> 30,100,86,49,55,93,65,3.3,0.021,0.02,0.046,0.1 to 1,0.1 to 1,
O=C(NC(c1ccc(Cl)cc1)c1ccccn1)C1CCN(CCOc2ccc3cccnc3c2)CC1 (stereo not drawn) [Compound 16],1 to 10,< 0.1,98,97,34,75,94,45,14,0.01,0.023,0.021,> 30,> 30,Ki (D2): 10 to 30 µM
O=C(NC(c1cccc(Cl)c1)c1ccccn1)C1CCN(CCOc2ccccc2)CC1 (stereo not drawn) [Compound 23],> 30,> 30,100,96,76,77,100,41,225,0.023,0.03,0.033,0.1 to 1,0.1 to 1,
O=C(NC(c1ccc(Cl)cc1)c1ccccn1)C1CCN(CCn2ccc(=O)cc2)CC1 (stereo not drawn) [Compound 11],> 30,> 30,98.2,100,95,100,89.5,100,> 500,0.485,0.391,0.211,> 30,10 to 30,Ki (D2): 10 to 30 µM
O=C(NC(c1ccc(Cl)cc1)c1ccccn1)C1CCN(CCOc2cc(F)ccc2F)CC1 (stereo not drawn) [Compound 14],> 30,< 0.1,96.7,78.2,49,44,100,11,36.1,0.009,0.015,0.006,0.1 to 1,> 30,
O=C(NC(c1cccc(F)c1)c1ccccn1)C1CCN(CCOc2ccccc2)CC1 (stereo not drawn) [Compound 26],> 30,> 30,100,99,84,96,92,66,460,0.062,0.057,0.046,1 to 10,0.1 to 1,
O=C(NC(c1ccc(F)cc1)c1ccc(Cl)cc1)C1CCN(CCOc2ccccc2)CC1 (stereo not drawn) [Compound 42],> 30,0.1 to 1,98,93,40,70,100,59,< 0.1,0.007,0.007,0.014,0.1 to 1,0.1 to 1,Ki (D2): 0.1 to 1 µM
O=C(NC(c1ccc(Cl)cc1)c1ccccn1)C1CCN(CCOc2ccc3ccc(=O)[nH]c3c2)CC1 (stereo not drawn) [Compound 15],> 30,> 30,96,91,56,68,100,44,,,,,,,solubility (Solubility in PBS): 4.1 µM; Plasma Protein Binding % bound (plasma protein [3]): 97.7%; Plasma Protein Binding % bound (plasma protein [4]): 97.4%; Plasma Protein Binding % bound (plasma protein [5]): 99.0%; IC50 (human D2R/β-arrestin [8]): 10 to 30 µM; IC50 (human D2R/β-arrestin [9]): > 30 µM
"O=C(NC(c1ccc(C(F)(F)F)cc1)c1ccccn1)C1CCN(CCOc2ccccc2)CC1 (stereo not drawn) [Compound 31, 1-(2-phenoxyethyl)-N-(pyridin-2-yl(4-(trifluoromethyl)phenyl)methyl) piperidine-4-carboxamide]",> 30,0.1 to 1,94.2,100,53,55,84.5,57,27,0.023,0.026,0.014,1 to 10,> 30,
